# Results from patent US20230295096A1, “PYRAZOLE CARBOXAMIDE COMPOUNDS FOR TREATMENT OF HBV” (ASSEMBLY BIOSCIENCES, INC., priority 2020, published 2023).
# Test system: HBV
# Assay: Viral load production from HepAD38 cells, qPCR of the HBV core sequence in supernatant
# Assay type: cell-based
# Details: Hepatitis B virus, HePAD38, 120 h, HepAD38 cells, 5 days, HBV DNA in supernatant by qPCR; Table 1 ranges; read-out: Activity (viral load lowering EC50)
# How it was run: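 EC50 and CC50 come from four-parameter logistic fits of supernatant HBV core DNA (TaqMan qPCR, DNA standards, compared with DMSO wells) and of CellTiter-Glo luminescence.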
row,Compound,EC50 [nM]
1,"Cn1nc(C2CC3CC(O)(C(F)(F)S(=O)(=O)c4ccc(Cl)cc4)CC3C2)c(C(=O)Nc2ccc(F)c(Cl)c2)c1N (stereo not shown) [Example 34, 5-Amino-N-(3-chloro-4-fluorophenyl)-3-(5-(((4-chlorophenyl)sulfonyl)difluoromethyl)-5-hydroxyoctahydropentalen-2-yl)-1-methyl-1H-pyrazole-4-carboxamide]",10 to 50
2,"Cc1ccc(S(=O)(=O)C(F)(F)C2(O)CC3CC(c4nn(C)c(N)c4C(=O)Nc4ccc(F)c(Cl)c4)CC3C2)cc1 (stereo not shown) [Example 35, 5-Amino-N-(3-chloro-4-fluorophenyl)-3-(5-(difluoro(tosyl)methyl)-5-hydroxyoctahydropentalen-2-yl)-1-methyl-1H-pyrazole-4-carboxamide]",10 to 50
3,"Cc1ccc([S+]([O-])C(F)(F)C2(O)CC3CC(c4nn(C)c(N)c4C(=O)Nc4ccc(F)c(Cl)c4)CC3C2)cc1 (stereo not shown) [Example 36, 5-Amino-N-(3-chloro-4-fluorophenyl)-3-(5-(difluoro(p-tolylsulfinyl)methyl)-5-hydroxyoctahydropentalen-2-yl)-1-methyl-1H-pyrazole-4-carboxamide]",10 to 50
4,"Cn1nc(C2CC3CC(O)(CS(=O)(=O)c4cccc(F)c4)CC3C2)c(C(=O)Nc2ccc(F)c(Cl)c2)c1N (stereo not shown) [Example 37, 5-Amino-N-(3-chloro-4-fluorophenyl)-3-(5-(((3-fluorophenyl)sulfonyl)methyl)-5-hydroxyoctahydropentalen-2-yl)-1-methyl-1H-pyrazole-4-carboxamide]",< 10
5,"Cn1cnc(C(=O)NCC2CC3CC(c4nn(C)c(N)c4C(=O)Nc4ccc(F)c(Cl)c4)CC3C2)c1 (stereo not shown) [Example 38, 5-Amino-N-(3-chloro-4-fluorophenyl)-1-methyl-3-(5-((1-methyl-1H-imidazole-4-carboxamido)methyl)octahydropentalen-2-yl)-1H-pyrazole-4-carboxamide]",< 10
6,"CC(C)C(=O)NCC1CC2CC(c3nn(C)c(N)c3C(=O)Nc3ccc(F)c(Cl)c3)CC2C1 (stereo not shown) [Example 45, 5-Amino-N-(3-chloro-4-fluorophenyl)-3-(5-(isobutyramidomethyl)octahydropentalen-2-yl)-1-methyl-1H-pyrazole-4-carboxamide]",< 10
7,"Cn1nc(C2CC3CC(CNC(=O)C4CCC4)CC3C2)c(C(=O)Nc2ccc(F)c(Cl)c2)c1N (stereo not shown) [Example 46, 5-Amino-N-(3-chloro-4-fluorophenyl)-3-(5-(cyclobutanecarboxamidomethyl)octahydropentalen-2-yl)-1-methyl-1H-pyrazole-4-carboxamide]",< 10
8,"Cn1nc(C2CC3CC(CNC(=O)C4CCCC4)CC3C2)c(C(=O)Nc2ccc(F)c(Cl)c2)c1N (stereo not shown) [Example 47, 5-Amino-N-(3-chloro-4-fluorophenyl)-3-(5-(cyclopentanecarboxamidomethyl)octahydropentalen-2-yl)-1-methyl-1H-pyrazole-4-carboxamide]",< 10
9,"COC(=O)NCC1CC2CC(c3nn(C)c(N)c3C(=O)Nc3ccc(F)c(Cl)c3)CC2C1 (stereo not shown) [Example 48, Methyl ((5-(5-amino-4-((3-chloro-4-fluorophenyl)carbamoyl)-1-methyl-1H-pyrazol-3-yl)octahydropentalen-2-yl)methyl)carbamate]",< 10
10,"CNC(=O)NCC1CC2CC(c3nn(C)c(N)c3C(=O)Nc3ccc(F)c(Cl)c3)CC2C1 (stereo not shown) [Example 49, 5-Amino-N-(3-chloro-4-fluorophenyl)-1-methyl-3-(5-((3-methylureido)methyl)octahydropentalen-2-yl)-1H-pyrazole-4-carboxamide]",< 10
11,"Cn1nc(C2CC3CC(CNC(=O)C4CCOCC4)CC3C2)c(C(=O)Nc2ccc(F)c(Cl)c2)c1N (stereo not shown) [Example 50, 5-Amino-N-(3-chloro-4-fluorophenyl)-1-methyl-3-(5-((tetrahydro-2H-pyran-4-carboxamido)methyl)octahydropentalen-2-yl)-1H-pyrazole-4-carboxamide]",< 10
12,"CC1CCC(C(=O)NCC2CC3CC(c4nn(C)c(N)c4C(=O)Nc4ccc(F)c(Cl)c4)CC3C2)CC1 (stereo not shown) [Example 51, 5-Amino-N-(3-chloro-4-fluorophenyl)-1-methyl-3-(5-((4-methylcyclohexane-1-carboxamido)methyl)octahydropentalen-2-yl)-1H-pyrazole-4-carboxamide]",10 to 50
13,"C#CCCC(=O)NCC1CC2CC(c3nn(C)c(N)c3C(=O)Nc3ccc(F)c(Cl)c3)CC2C1 (stereo not shown) [Example 52, 5-Amino-N-(3-chloro-4-fluorophenyl)-1-methyl-3-(5-(pent-4-ynamidomethyl)octahydropentalen-2-yl)-1H-pyrazole-4-carboxamide]",< 10
14,"Cn1nc(C2CC3CC(CNC(=O)C4CCC(F)(F)CC4)CC3C2)c(C(=O)Nc2ccc(F)c(Cl)c2)c1N (stereo not shown) [Example 53, 5-Amino-N-(3-chloro-4-fluorophenyl)-3-(5-((4,4-difluorocyclohexane-1-carboxamido)methyl)octahydropentalen-2-yl)-1-methyl-1H-pyrazole-4-carboxamide]",< 10
15,"CC(=O)NCC1CC2CC(c3nn(C)c(N)c3C(=O)Nc3ccc(F)c(Cl)c3)CC2C1 (stereo not shown) [Example 54, 3-(5-(Acetamidomethyl)octahydropentalen-2-yl)-5-amino-N-(3-chloro-4-fluorophenyl)-1-methyl-1H-pyrazole-4-carboxamide]",< 10
16,"Cn1nc(C2CC3CC(CNC(=O)CC(F)(F)F)CC3C2)c(C(=O)Nc2ccc(F)c(Cl)c2)c1N (stereo not shown) [Example 55, 5-Amino-N-(3-chloro-4-fluorophenyl)-1-methyl-3-(5-((3,3,3-trifluoropropanamido)methyl)octahydropentalen-2-yl)-1H-pyrazole-4-carboxamide]",< 10
17,"Cn1nc(C2CC3CC(CNC(=O)CCC(C)(C)C)CC3C2)c(C(=O)Nc2ccc(F)c(Cl)c2)c1N (stereo not shown) [Example 56, 5-Amino-N-(3-chloro-4-fluorophenyl)-3-(5-((4,4-dimethylpentanamido)methyl)octahydropentalen-2-yl)-1-methyl-1H-pyrazole-4-carboxamide]",< 10
18,"Cn1nc(C2CC3CC(CNC(=O)c4ccc(C(F)(F)F)cc4)CC3C2)c(C(=O)Nc2ccc(F)c(Cl)c2)c1N (stereo not shown) [Example 57, 5-Amino-N-(3-chloro-4-fluorophenyl)-1-methyl-3-(5-((4-(trifluoromethyl)benzamido)methyl)octahydropentalen-2-yl)-1H-pyrazole-4-carboxamide]",10 to 50
19,"Cn1nc(C2CC3CC(CNC(=O)c4cnc(C(F)(F)F)s4)CC3C2)c(C(=O)Nc2ccc(F)c(Cl)c2)c1N (stereo not shown) [Example 58, N-((5-(5-Amino-4-((3-chloro-4-fluorophenyl)carbamoyl)-1-methyl-1H-pyrazol-3-yl)octahydropentalen-2-yl)methyl)-2-(trifluoromethyl)thiazole-5-carboxamide]",10 to 50
20,"Cc1noc(C)c1C(=O)NCC1CC2CC(c3nn(C)c(N)c3C(=O)Nc3ccc(F)c(Cl)c3)CC2C1 (stereo not shown) [Example 59, N-((5-(5-Amino-4-((3-chloro-4-fluorophenyl)carbamoyl)-1-methyl-1H-pyrazol-3-yl)octahydropentalen-2-yl)methyl)-3,5-dimethylisoxazole-4-carboxamide]",< 10
21,"Cn1nc(C2CC3CC(CNC(=O)c4ccns4)CC3C2)c(C(=O)Nc2ccc(F)c(Cl)c2)c1N (stereo not shown) [Example 60, N-((5-(5-Amino-4-((3-chloro-4-fluorophenyl)carbamoyl)-1-methyl-1H-pyrazol-3-yl)octahydropentalen-2-yl)methyl)isothiazole-5-carboxamide]",< 10
22,"Cn1nc(C2CC3CC(CNC(=O)c4cncc(F)c4)CC3C2)c(C(=O)Nc2ccc(F)c(Cl)c2)c1N (stereo not shown) [Example 61, N-((5-(5-Amino-4-((3-chloro-4-fluorophenyl)carbamoyl)-1-methyl-1H-pyrazol-3-yl)octahydropentalen-2-yl)methyl)-5-fluoronicotinamide]",< 10
23,"Cn1nc(C2CC3CC(CNC(=O)C4CCN(C(=O)OC(C)(C)C)CC4)CC3C2)c(C(=O)Nc2ccc(F)c(Cl)c2)c1N (stereo not shown) [Example 62, tert-Butyl 4-(((5-(5-amino-4-((3-chloro-4-fluorophenyl)carbamoyl)-1-methyl-1H-pyrazol-3-yl)octahydropentalen-2-yl)methyl)carbamoyl)piperidine-1-carboxylate]",< 10
24,"Cn1nc(C2CC3CC(CNC(=O)C(C)(C)C4CCOCC4)CC3C2)c(C(=O)Nc2ccc(F)c(Cl)c2)c1N (stereo not shown) [Example 63, 5-Amino-N-(3-chloro-4-fluorophenyl)-1-methyl-3-(5-((2-methyl-2-(tetrahydro-2H-pyran-4-yl)propanamido)methyl)octahydropentalen-2-yl)-1H-pyrazole-4-carboxamide]",10 to 50
25,"Cn1nc(C2CC3CC(CNC(=O)C4(C)COC4)CC3C2)c(C(=O)Nc2ccc(F)c(Cl)c2)c1N (stereo not shown) [Example 64, 5-Amino-N-(3-chloro-4-fluorophenyl)-1-methyl-3-(5-((3-methyloxetane-3-carboxamido)methyl)octahydropentalen-2-yl)-1H-pyrazole-4-carboxamide]",< 10
26,"Cn1nc(C2CC3CC(CNC(=O)C4(C)CC4)CC3C2)c(C(=O)Nc2ccc(F)c(Cl)c2)c1N (stereo not shown) [Example 65, 5-Amino-N-(3-chloro-4-fluorophenyl)-1-methyl-3-(5-((1-methylcyclopropane-1-carboxamido)methyl)octahydropentalen-2-yl)-1H-pyrazole-4-carboxamide]",< 10
27,"Cn1nc(C2CC3CC(CNC(=O)C(C)(C)C(F)(F)F)CC3C2)c(C(=O)Nc2ccc(F)c(Cl)c2)c1N (stereo not shown) [Example 66, 5-Amino-N-(3-chloro-4-fluorophenyl)-1-methyl-3-(5-((3,3,3-trifluoro-2,2-dimethylpropanamido)methyl)octahydropentalen-2-yl)-1H-pyrazole-4-carboxamide]",10 to 50
28,"Cn1nc(C2CC3CC(CNC(=O)C(C)(C)CO)CC3C2)c(C(=O)Nc2ccc(F)c(Cl)c2)c1N (stereo not shown) [Example 67, 5-Amino-N-(3-chloro-4-fluorophenyl)-3-(5-((3-hydroxy-2,2-dimethylpropanamido)methyl)octahydropentalen-2-yl)-1-methyl-1H-pyrazole-4-carboxamide]",< 10
